Source: patent US20240415819A1, “MACROCYCLIC COMPOUNDS AS PROTEASOME SUBUNIT BETA TYPE-5 INHIBITORS” (Lead Discovery Center GmbH, priority 2021, published 2024)

Tests used:
[1] = molecular target: T1, β5 subunit of the human immunoproteasome (IPS) (Homo sapiens, UniProt P28062); experiment: β5 inhibition assay, human immunoproteasome (Suc-LLVY-AMC); assay type: biochemical; details: IC50 class, Suc-LLVY-AMC substrate
T1 construct: purchased Boston Biochem E-370
How it was run: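 Human immunoproteasome (1 nM final) was preincubated 10 min at RT with compound in 100 mM HEPES pH 7.5, 50 mM NaCl, 0.02% SDS, 1 mM DTT. Suc-LLVY-AMC (22.6 μM final) was then added for 4 h at RT in the dark. After stopping with 1 μM bortezomib, AMC fluorescence was read (ex 355/em 460 nm).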

hPMBC = experiment: Chymotrypsin-like ProteasomeGlo assay in hPBMC; assay type: cell-based; details: Homo sapiens; read-out: Pglo hPBMC
How it was run: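 B cells isolated from human PBMC (buffy coats, density gradient, magnetic isolation). Cells treated with compound for 105 min at 37 °C, with staurosporine and DMSO included. Chymotrypsin-like proteasome activity read by luminescence with Suc-LLVY-Glo substrate to derive IC50.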

Work on `Cc1ccc2cc1CNC(=O)C(CCc1ccncc1)NC(=O)[C@@H](NC(=O)Cc1ccc(N)cc1F)CC(=O)N1CCCC(CCO2)C1` (stereo partly drawn) [Compound 344, 2-(4-amino-2-fluorophenyl)-N-((12S)-5^4-methyl-8,11,14-trioxo-9-(2-(pyridin-4-yl)ethyl)-4-oxa-7,10-diaza-1(3,1)-piperidina-5(1,3)-benzenacyclotetradecaphane-12-yl)acetamide] yielded an IC50 [1] of less than 100 nM and an IC50 (hPMBC) of less than 100 nM.
Compound `CC(=O)N[C@H]1CC(=O)N2CCCC(CCOc3cccc(c3)CNC(=O)[C@H](CCc3ccccc3)NC1=O)C2` (stereo partly drawn) [Compound 364, N-((9S,12S)-8,11,14-trioxo-9-phenethyl-4-oxa-7,10-diaza-1(3,1)-piperidina-5(1,3)-benzenacyclotetradecaphane-12-yl)acetamide] has an IC50 [1] of less than 100 nM and an IC50 (hPMBC) of less than 100 nM.
`CC(=O)c1ccc(CC(=O)N[C@H]2CC(=O)N3CCCC(CCOc4ccc(C)c(c4)CNC(=O)[C@H](CCc4ccccc4)NC2=O)C3)cc1` (stereo partly drawn) [Compound 341, 2-(4-acetylphenyl)-N-((9S,12S)-54-methyl-8,11,14-trioxo-9-phenethyl-4-oxa-7,10-diaza-1(3,1)-piperidina-5(1,3)-benzenacyclotetradecaphane-12-yl)acetamide] gave an IC50 [1] of less than 100 nM and an IC50 (hPMBC) of less than 100 nM.
Compound `Cc1ccc2cc1CNC(=O)[C@H](CCc1ccccc1)NC(=O)[C@@H](NC(=O)Cc1ccccc1C)CC(=O)N1CCCC(CCO2)C1` (stereo partly drawn) [Compound 373, N-((9S,12S)-5^4-methyl-8,11,14-trioxo-9-phenethyl-4-oxa-7,10-diaza-1(3,1)-piperidina-5(1,3)-benzenacyclotetradecaphane-12-yl)-2-(o-tolyl)acetamide] has an IC50 [1] of less than 100 nM and an IC50 (hPMBC) of less than 100 nM.
`CC(=O)N[C@H]1CC(=O)N2CCCC(CCOc3ccc(C)c(c3)CNC(=O)C(c3cnn(C)c3)NC1=O)C2` (stereo partly drawn) [Compound 552, N-((12S)-5^4-methyl-9-(1-methyl-1H-pyrazol-4-yl)-8,11,14-trioxo-4-oxa-7,10-diaza-1(3,1)-piperidina-5(1,3)-benzenacyclotetradecaphane-12-yl)acetamide] was tested, and the IC50 [1] was less than 100 nM and the IC50 (hPMBC) was less than 100 nM.
`Cc1ccc2cc1CNC(=O)C(CCc1ccc(S(=O)(=O)O)cc1)NC(=O)[C@@H](NC(=O)OCc1ccccc1)CC(=O)N1CCCC(CCO2)C1` (stereo partly drawn) [Compound 509, 4-(2-((12S)-12-(((benzyloxy)carbonyl)amino)-5^4-methyl-8,11,14-trioxo-4-oxa-7,10-diaza-1(3,1)-piperidina-5(1,3)-benzenacyclotetradecaphane-9-yl)ethyl)benzenesulfonic acid] gave an IC50 [1] of less than 100 nM and an IC50 (hPMBC) of 100 to 500 nM.
`CC(=O)N[C@H]1CC(=O)N2CCCC(CCOc3ccc(C)c(c3)CNC(=O)C(Cn3c(=O)oc4ccccc43)NC1=O)C2` (stereo partly drawn) [Compound 555, N-((12S)-5^4-methyl-8,11,14-trioxo-9-((2-oxobenzo[d]oxazol-3(2H)-yl)methyl)-4-oxa-7,10-diaza-1(3,1)-piperidina-5(1,3)-benzenacyclotetradecaphane-12-yl)acetamide] showed an IC50 [1] of less than 100 nM and an IC50 (hPMBC) of less than 100 nM.
Work on `Cc1ccc2cc1CNC(=O)C(c1cnn(C)c1)NC(=O)[C@@H](NC(=O)[C@@H](C)c1ccccc1)CC(=O)N1CCCC(CCO2)C1` (stereo partly drawn) [Compound 359, (2S)-N-((12S)-5^4-methyl-9-(1-methyl-1H-pyrazol-4-yl)-8,11,14-trioxo-4-oxa-7,10-diaza-1(3,1)-piperidina-5(1,3)-benzenacyclotetradecaphane-12-yl)-2-phenylpropanamide] yielded an IC50 [1] of less than 100 nM and an IC50 (hPMBC) of less than 100 nM.
Work on `Cc1ccc2cc1CNC(=O)[C@H](CCc1ccccc1)NC(=O)[C@@H](NC(=O)Cc1cc(O)on1)CC(=O)N1CCCC(CCO2)C1` (stereo partly drawn) [Compound 335, 2-(5-hydroxyisoxazol-3-yl)-N-((9S,12S)-5^4-methyl-8,11,14-trioxo-9-phenethyl-4-oxa-7,10-diaza-1(3,1)-piperidina-5(1,3)-benzenacyclotetradecaphane-12-yl)acetamide] yielded an IC50 [1] of less than 100 nM and an IC50 (hPMBC) of less than 100 nM.
`CC(=O)N[C@H]1CC(=O)N2CCCC(CCOc3ccc(C)c(c3)CNC(=O)C(c3cc(C)n(C)n3)NC1=O)C2` (stereo partly drawn) [Compound 561, N-((12S)-9-(1,5-dimethyl-1H-pyrazol-3-yl)-5^4-methyl-8,11,14-trioxo-4-oxa-7,10-diaza-1(3,1)-piperidina-5(1,3)-benzenacyclotetradecaphane-12-yl)acetamide] showed an IC50 [1] of less than 100 nM and an IC50 (hPMBC) of less than 100 nM.
`COC(=O)N(CC1NC(=O)[C@@H](NC(C)=O)CC(=O)N2CCCC(CCOc3ccc(C)c(c3)CNC1=O)C2)c1ccccc1` (stereo partly drawn) [Compound 560, methyl (((12S)-12-acetamido-5^4-methyl-8,11,14-trioxo-4-oxa-7,10-diaza-1(3,1)-piperidina-5(1,3)-benzenacyclotetradecaphane-9-yl)methyl)(phenyl)carbamate] showed an IC50 [1] of less than 100 nM and an IC50 (hPMBC) of less than 100 nM.
`Cc1ccc2cc1CNC(=O)C(CCc1ccncc1)NC(=O)[C@@H](NC(=O)OCc1ccccc1)CC(=O)N1CCCC(CCO2)C1` (stereo partly drawn) [Compound 336, benzyl ((12S)-5^4-methyl-8,11,14-trioxo-9-(2-(pyridin-4-yl)ethyl)-4-oxa-7,10-diaza-1(3,1)-piperidina-5(1,3)-benzenacyclotetradecaphane-12-yl)carbamate] was tested, and the IC50 [1] was less than 100 nM and the IC50 (hPMBC) was less than 100 nM.
`CC(=O)N[C@H]1CC(=O)N(C)CCCCOc2ccc(C)c(c2)CNC(=O)[C@H](CCc2ccccc2)NC1=O` [Compound 296, N-(1^4,7-dimethyl-8,11,14-trioxo-13-phenethyl-2-oxa-7,12,15-triaza-1(1,3)-benzenacyclohexadecaphane-10-yl)acetamide] was tested, and the IC50 [1] was 100 to 500 nM and the IC50 (hPMBC) was 100 to 500 nM.
In the case of `Cc1ccc2cc1CNC(=O)[C@H](CCc1ccccc1)NC(=O)[C@@H](NC(=O)Cc1cc(Cl)c(N)c(Cl)c1)CC(=O)N1CCCC(CCO2)C1` (stereo partly drawn) [Compound 320, 2-(4-amino-3,5-dichlorophenyl)-N-((9S,12S)-5^4-methyl-8,11,14-trioxo-9-phenethyl-4-oxa-7,10-diaza-1(3,1)-piperidina-5(1,3)-benzenacyclotetradecaphane-12-yl)acetamide], the IC50 [1] is reported as less than 100 nM and the IC50 (hPMBC) is reported as less than 100 nM.
`Cc1ccc2cc1CNC(=O)[C@H](CCc1ccccc1)NC(=O)[C@@H](NC(=O)Cc1csc(N)n1)CC(=O)N1CCCC(CCO2)C1` (stereo partly drawn) [Compound 302, 2-(2-aminothiazol-4-yl)-N-((9S,12S)-5^4-methyl-8,11,14-trioxo-9-phenethyl-4-oxa-7,10-diaza-1(3,1)-piperidina-5(1,3)-benzenacyclotetradecaphane-12-yl)acetamide] showed an IC50 [1] of less than 100 nM and an IC50 (hPMBC) of less than 100 nM.
`CO[C@@H](C(=O)N[C@H]1CC(=O)N2CCCC(CCOc3ccc(C)c(c3)CNC(=O)C(c3cnn(C)c3)NC1=O)C2)c1ccccc1` (stereo partly drawn) [Compound 361, (2R)-2-methoxy-N-((12S)-5^4-methyl-9-(1-methyl-1H-pyrazol-4-yl)-8,11,14-trioxo-4-oxa-7,10-diaza-1(3,1)-piperidina-5(1,3)-benzenacyclotetradecaphane-12-yl)-2-phenylacetamide] showed an IC50 [1] of less than 100 nM and an IC50 (hPMBC) of less than 100 nM.
Compound `Cc1ccc2cc1CNC(=O)[C@H](CCc1ccccc1)NC(=O)[C@@H](NC(=O)OCc1ccccc1)CCCCC(=O)N1CC(CCO2)C1` [Compound 353, benzyl ((9S,12S)-5^4-methyl-8,11,17-trioxo-9-phenethyl-4-oxa-7,10-diaza-1(3,1)-azetidina-5(1,3)-benzenacycloheptadecaphane-12-yl)carbamate] has an IC50 [1] of less than 100 nM and an IC50 (hPMBC) of less than 100 nM.
`Cc1ccc2cc1CNC(=O)[C@H](CCc1ccccc1)NC(=O)[C@@H](NC(=O)OCc1ccccc1)CCC(=O)N1CCCC3(CC(C3)O2)C1` [Compound 301, benzyl ((7S,10S)-3^4-methyl-6,9,13-trioxo-7-phenethyl-2-oxa-5,8-diaza-14(3,1)-piperidina-3(1,3)-benzena-1(1,3)-cyclobutanatetradecaphane-10-yl)carbamate] gave an IC50 [1] of 500 to 1000 nM and an IC50 (hPMBC) of 1000 to 5000 nM.
In the case of `CC(=O)N[C@H]1CC(=O)N2CCCC(CCOc3ccc(C)c(c3)CNC(=O)C(Cc3ccccc3)NC1=O)C2` (stereo partly drawn) [Compound 558, N-((12S)-9-benzyl-5^4-methyl-8,11,14-trioxo-4-oxa-7,10-diaza-1(3,1)-piperidina-5(1,3)-benzenacyclotetradecaphane-12-yl)acetamide], the IC50 [1] is reported as less than 100 nM and the IC50 (hPMBC) is reported as less than 100 nM.
With `CC(=O)N[C@H]1CC(=O)N2CCCC(CCOc3ccc(C)c(c3)CNC(=O)C(c3cn(C)cn3)NC1=O)C2` (stereo partly drawn) [Compound 557, N-((12S)-5^4-methyl-9-(1-methyl-1H-imidazol-4-yl)-8,11,14-trioxo-4-oxa-7,10-diaza-1(3,1)-piperidina-5(1,3)-benzenacyclotetradecaphane-12-yl)acetamide] the IC50 [1] was less than 100 nM and the IC50 (hPMBC) was less than 100 nM.
With `CC(=O)N[C@H]1CC(=O)N2CCCC(CCOc3ccc(C)c(c3)CNC(=O)C(CCc3cccnc3)NC1=O)C2` (stereo partly drawn) [Compound 549, N-((12S)-5^4-methyl-8,11,14-trioxo-9-(2-(pyridin-3-yl)ethyl)-4-oxa-7,10-diaza-1(3,1)-piperidina-5(1,3)-benzenacyclotetradecaphane-12-yl)acetamide] the IC50 [1] was less than 100 nM and the IC50 (hPMBC) was less than 100 nM.
`Cc1n[nH]c(CC(=O)N[C@H]2CC(=O)N3CCCC(CCOc4ccc(C)c(c4)CNC(=O)[C@H](CCc4ccccc4)NC2=O)C3)n1` (stereo partly drawn) [Compound 332, 2-(3-methyl-1H-1,2,4-triazol-5-yl)-N-((9S,12S)-5^4-methyl-8,11,14-trioxo-9-phenethyl-4-oxa-7,10-diaza-1(3,1)-piperidina-5(1,3)-benzenacyclotetradecaphane-12-yl)acetamide] gave an IC50 [1] of less than 100 nM and an IC50 (hPMBC) of less than 100 nM.
